Data on six compounds can be found in publication PMC6299220 (mBio, 2018).

A word on the IC50: it is the concentration at which inhibition is half-maximal. By microsomal CLint is commonly meant the rate of metabolic loss divided by the concentration. For orientation: Papp means the rate of passage across a membrane or cell layer, normalised by area and donor concentration. For orientation: solubility (kinetic) means solubility judged after dilution from a stock solution rather than from solid. Broadly, the fraction unbound is free concentration divided by total concentration. One may read the AUC(0-t) as exposure summed from dosing to a finite time, without extrapolation to infinity. Usually bioavailability stands for dose-corrected exposure relative to a reference, in per cent. As a reminder, the EC50 is the concentration needed to bring the measured effect to its halfway point.

In brackets after ≈: the same amount, converted by molar mass. Several values for one entry are separate records, joined by “and”; a condition that tells them apart may be missing. Equal entries are not always repeated. Where two headings read alike, the source gives them in different places.

In one series the test system is M. abscessus. Description: MIC, MABA. Format: cell-based. As to conditions: Mycobacteroides abscessus; M. abscessus ATCC wild type.
Series [1] concerns M. tuberculosis 100-day-old bacilli (persisters). It is filed as cell-based, Mycobacterium tuberculosis.
In another series the test system is M. fortuitum. The series can be described thus: MIC, MABA. Format: cell-based. The conditions noted are these: Mycolicibacterium fortuitum; M. fortuitum ATCC wild type.
A further series concerns M. tuberculosis TDR692. The series can be described thus: microbe, parasite or virus in culture. Format: cell-based. The conditions noted are these: Mycobacterium tuberculosis.
The subject of a further series is M. avium. Description: MIC, MABA. Format: cell-based. The conditions noted are these: Mycobacterium avium; M. avium ATCC wild type.
A further series deals with M. smegmatis. Description: MIC, MABA. The conditions noted are these: Mycolicibacterium smegmatis; M. smegmatis wild-type. Format: cell-based.
The subject of the next series is M. marinum. The series can be described thus: MIC, MABA. Format: cell-based. As to conditions: Mycobacterium marinum; M. marinum ATCC wild type.
In series [2] the test system is M. tuberculosis H37Rv gene expression. It is filed as cell-based, Mycobacterium tuberculosis.
The test system of a further series is M. tuberculosis 210. The series can be described thus: microbe, parasite or virus in culture. As to conditions: Mycobacterium tuberculosis. It is filed as cell-based.
The test system of a further series is M. bovis BCG. The series can be described thus: microbe, parasite or virus in culture. Format: cell-based. The conditions noted are these: Mycobacterium tuberculosis variant bovis BCG.
The subject of a further series is M. tuberculosis H37Rv. Description: microbe, parasite or virus in culture. Format: cell-based, Mycobacterium tuberculosis.
A short description of series [3]: Mouse liver microsomal (MLM) stability. The conditions noted are these: for half-life: mouse, liver microsomes.
The test system of another series is M. tuberculosis. The conditions noted are these: cited from earlier work.
The next series addresses CYP2D6 (Homo sapiens, UniProt P10635). The series can be described thus: biochemical. It is filed as in vitro ADME. The text has this:
(§1) Supplement mbo006184230st8.docx, table 1: Table S3. Profile of DG167 | column: value

In a further series the target is CYP2C9 (Homo sapiens, UniProt P11712). The series can be described thus: biochemical. It is filed as in vitro ADME.
Chain of CYP2C9 (P11712 whole entry): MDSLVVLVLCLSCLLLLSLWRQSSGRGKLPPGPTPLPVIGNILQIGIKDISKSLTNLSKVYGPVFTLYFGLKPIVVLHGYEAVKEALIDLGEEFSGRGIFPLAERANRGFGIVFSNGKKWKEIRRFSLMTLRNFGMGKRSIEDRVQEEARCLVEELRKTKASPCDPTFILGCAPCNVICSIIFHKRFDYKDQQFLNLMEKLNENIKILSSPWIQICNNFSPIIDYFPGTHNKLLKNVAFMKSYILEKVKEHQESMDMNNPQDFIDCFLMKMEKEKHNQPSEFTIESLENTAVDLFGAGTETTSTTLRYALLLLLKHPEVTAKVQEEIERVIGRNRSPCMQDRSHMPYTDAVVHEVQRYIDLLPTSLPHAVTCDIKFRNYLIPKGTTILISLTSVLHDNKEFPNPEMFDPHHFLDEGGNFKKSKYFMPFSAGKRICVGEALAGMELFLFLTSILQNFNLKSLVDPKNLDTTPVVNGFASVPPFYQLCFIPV
Source text: as §1

A further series deals with CYP1A2 (Homo sapiens, UniProt P05177). Description: biochemical. Format: in vitro ADME.
Chain of CYP1A2 (P05177 whole entry): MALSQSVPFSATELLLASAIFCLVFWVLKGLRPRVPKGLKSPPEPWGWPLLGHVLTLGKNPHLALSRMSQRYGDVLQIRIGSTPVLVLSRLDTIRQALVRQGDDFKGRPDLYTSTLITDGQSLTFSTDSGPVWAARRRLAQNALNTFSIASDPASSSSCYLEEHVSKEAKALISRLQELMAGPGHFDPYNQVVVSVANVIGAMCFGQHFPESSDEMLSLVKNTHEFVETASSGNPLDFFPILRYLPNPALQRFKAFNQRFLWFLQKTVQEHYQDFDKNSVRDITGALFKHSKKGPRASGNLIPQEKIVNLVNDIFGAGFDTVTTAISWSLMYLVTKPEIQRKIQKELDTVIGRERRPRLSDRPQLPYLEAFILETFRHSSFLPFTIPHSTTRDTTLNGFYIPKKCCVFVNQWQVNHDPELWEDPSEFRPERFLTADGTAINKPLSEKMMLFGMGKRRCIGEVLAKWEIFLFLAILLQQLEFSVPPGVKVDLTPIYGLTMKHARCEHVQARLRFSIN
Source text: as §1

A further series has as its target CYP3A4 (Homo sapiens, UniProt P08684). The series can be described thus: biochemical. Format: in vitro ADME.
Source text: as §1

Series [4] can be described thus: in vitro. The conditions noted are these: mouse, microsomes.
For series [5], the system named is mycolic acid biosynthesis in M. tuberculosis H37Rv. Format: cell-based, Mycobacterium tuberculosis.
Series [6] deals with iniBAC promoter (PiniBAC). Format: cell-based, M. bovis BCG.
A further series has as its target hERG (Homo sapiens, UniProt Q12809). The series can be described thus: hERG inhibition. A general note: The hERG channel carries a current that helps repolarise heart muscle cells.
Assay in series [7]: not given
The source holds these as a separate data set.

Series [8] is classed as in vitro ADME.
Source text: as §1

A short description of series [9]: in vitro. The conditions noted are these: human.
Series [10] can be described thus: in vitro. As to conditions: African green monkey.
Series [11] can be described thus: Chemical stability at pH 2, 7, 9. As to conditions: for half-life: buffer, read-out: Chemical stability t1/2. Format: physicochemical.
Source text: as §1

The nature of series [12]: in vitro. It is filed as cell-based. The conditions noted are these: mouse.
Source text: as §1

The next series addresses CYP2C19 (Homo sapiens, UniProt P33261). Description: Cytochrome P450 inhibition. It is filed as in vitro ADME. The conditions noted are these: read-out: Cytochrome P450 IC50, 2C19.
A further series is described as follows: physchem. As to conditions: pH 7.4, aqueous buffer, kinetic from dmso stock.
Series [13] is described as follows: in vitro. Format: in vitro ADME. As to conditions: for fraction unbound: plasma.
Source text: as §1

For series [14] the following is noted: mouse, microsomes.
A short description of a further series: in vivo. The conditions noted are these: female, BALB/c. How it is done:
All animal experiments were approved by the Institutional Animal Care and Use Committee of the New Jersey Medical School, Rutgers University, and were conducted in compliance with their guidelines. […] Sequential bleeds were collected at 0.25, 0.5, 1, 3, 5, and 8 h postdose via the tail snip method. Blood (50 µl) was collected in capillary microvette EDTA blood tubes and kept on ice prior to centrifugation at 1,500 × g for 5 min. The supernatant (plasma) was transferred into a 96-well plate and stored at −80°C.
Chromatography was performed with an Agilent Zorbax SB-C8 column (2.1 by 30 mm; particle size, 3.5 µm) using a reverse-phase gradient elution. A mixture of 0.1% formic acid–Milli-Q deionized water was used for the aqueous mobile phase and 0.1% formic acid–acetonitrile (ACN) for the organic mobile phase. […] Extracts were subjected to vortex mixing for 5 min and centrifuged at 4,000 rpm for 5 min. The supernatants were analyzed by LC-MS. Verapamil IS was sourced from Sigma-Aldrich.

Another series has as its target KasA (Mycobacterium tuberculosis, UniProt P9WQD9). The series can be described thus: Microscale thermophoresis (MST) binding assay. As to conditions: 49.5 nM labeled KasA.
The mark [15] stands for this setting: MLM stability t1/2 without NADPH, without NADPH.

Chain of CYP2C19 (P33261 whole entry, species assumed): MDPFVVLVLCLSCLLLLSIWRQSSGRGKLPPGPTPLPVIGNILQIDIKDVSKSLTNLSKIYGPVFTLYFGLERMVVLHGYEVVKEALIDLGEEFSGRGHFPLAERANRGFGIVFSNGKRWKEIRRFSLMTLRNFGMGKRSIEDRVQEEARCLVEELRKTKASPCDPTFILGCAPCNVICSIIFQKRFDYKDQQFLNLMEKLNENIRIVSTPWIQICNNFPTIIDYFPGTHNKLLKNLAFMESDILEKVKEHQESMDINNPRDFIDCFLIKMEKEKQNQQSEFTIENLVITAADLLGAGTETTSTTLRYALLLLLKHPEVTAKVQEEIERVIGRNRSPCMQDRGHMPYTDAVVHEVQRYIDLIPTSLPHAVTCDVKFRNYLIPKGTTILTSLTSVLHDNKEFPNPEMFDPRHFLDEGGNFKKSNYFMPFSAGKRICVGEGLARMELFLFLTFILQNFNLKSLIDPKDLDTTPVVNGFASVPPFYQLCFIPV
Chain of KasA (P9WQD9 whole entry): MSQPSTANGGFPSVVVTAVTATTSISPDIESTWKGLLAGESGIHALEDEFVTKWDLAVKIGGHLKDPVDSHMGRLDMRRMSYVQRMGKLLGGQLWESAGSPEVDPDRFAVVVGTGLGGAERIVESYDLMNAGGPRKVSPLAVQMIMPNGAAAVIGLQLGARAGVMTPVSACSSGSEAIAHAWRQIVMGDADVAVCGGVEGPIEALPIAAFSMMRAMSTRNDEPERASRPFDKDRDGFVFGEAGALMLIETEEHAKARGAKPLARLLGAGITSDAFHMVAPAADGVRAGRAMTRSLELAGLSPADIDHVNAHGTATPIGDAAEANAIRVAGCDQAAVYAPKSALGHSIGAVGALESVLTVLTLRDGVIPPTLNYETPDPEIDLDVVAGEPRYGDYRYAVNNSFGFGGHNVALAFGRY
Chain of hERG (Q12809 whole entry): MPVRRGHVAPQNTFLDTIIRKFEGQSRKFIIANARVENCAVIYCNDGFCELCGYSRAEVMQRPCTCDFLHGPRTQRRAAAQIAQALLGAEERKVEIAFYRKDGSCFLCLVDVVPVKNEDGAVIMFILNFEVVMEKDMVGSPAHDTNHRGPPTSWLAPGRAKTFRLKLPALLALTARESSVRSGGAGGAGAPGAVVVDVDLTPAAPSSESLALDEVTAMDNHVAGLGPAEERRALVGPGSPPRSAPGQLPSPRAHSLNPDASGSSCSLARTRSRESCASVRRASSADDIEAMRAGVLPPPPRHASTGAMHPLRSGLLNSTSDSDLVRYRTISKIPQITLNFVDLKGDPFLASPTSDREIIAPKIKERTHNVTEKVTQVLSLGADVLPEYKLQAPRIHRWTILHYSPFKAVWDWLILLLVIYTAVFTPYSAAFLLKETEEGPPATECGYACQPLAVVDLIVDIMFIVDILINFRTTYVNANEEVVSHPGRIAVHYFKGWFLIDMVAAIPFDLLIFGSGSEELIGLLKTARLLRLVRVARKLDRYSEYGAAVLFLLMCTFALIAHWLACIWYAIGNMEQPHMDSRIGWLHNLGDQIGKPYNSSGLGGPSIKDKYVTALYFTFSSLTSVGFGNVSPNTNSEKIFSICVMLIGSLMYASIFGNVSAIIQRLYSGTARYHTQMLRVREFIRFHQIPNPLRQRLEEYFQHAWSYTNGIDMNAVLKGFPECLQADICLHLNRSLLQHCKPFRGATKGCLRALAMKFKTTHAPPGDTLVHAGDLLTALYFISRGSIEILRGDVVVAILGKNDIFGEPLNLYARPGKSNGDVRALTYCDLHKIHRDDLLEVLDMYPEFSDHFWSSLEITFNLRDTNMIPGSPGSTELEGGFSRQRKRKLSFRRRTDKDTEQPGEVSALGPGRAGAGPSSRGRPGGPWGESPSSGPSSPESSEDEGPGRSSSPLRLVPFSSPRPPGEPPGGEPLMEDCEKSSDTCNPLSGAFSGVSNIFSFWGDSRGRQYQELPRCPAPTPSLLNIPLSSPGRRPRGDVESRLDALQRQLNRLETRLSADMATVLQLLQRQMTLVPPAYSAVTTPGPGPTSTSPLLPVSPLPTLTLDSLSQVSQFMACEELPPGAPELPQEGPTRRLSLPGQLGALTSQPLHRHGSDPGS
Chain of CYP2D6 (P10635 whole entry): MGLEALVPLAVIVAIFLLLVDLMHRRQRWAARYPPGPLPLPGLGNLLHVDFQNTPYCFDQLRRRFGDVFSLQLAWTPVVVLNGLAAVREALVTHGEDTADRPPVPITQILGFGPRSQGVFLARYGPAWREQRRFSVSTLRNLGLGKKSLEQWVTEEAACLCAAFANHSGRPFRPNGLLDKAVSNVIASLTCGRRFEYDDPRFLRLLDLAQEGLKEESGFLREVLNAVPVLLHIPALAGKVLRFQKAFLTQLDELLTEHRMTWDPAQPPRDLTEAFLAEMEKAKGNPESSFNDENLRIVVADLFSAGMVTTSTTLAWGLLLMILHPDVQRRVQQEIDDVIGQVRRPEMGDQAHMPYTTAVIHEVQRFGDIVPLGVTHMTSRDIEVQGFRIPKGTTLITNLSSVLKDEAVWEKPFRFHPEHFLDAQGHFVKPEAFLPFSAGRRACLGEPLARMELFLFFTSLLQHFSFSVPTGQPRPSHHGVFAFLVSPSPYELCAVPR
Chain of CYP3A4 (P08684 whole entry): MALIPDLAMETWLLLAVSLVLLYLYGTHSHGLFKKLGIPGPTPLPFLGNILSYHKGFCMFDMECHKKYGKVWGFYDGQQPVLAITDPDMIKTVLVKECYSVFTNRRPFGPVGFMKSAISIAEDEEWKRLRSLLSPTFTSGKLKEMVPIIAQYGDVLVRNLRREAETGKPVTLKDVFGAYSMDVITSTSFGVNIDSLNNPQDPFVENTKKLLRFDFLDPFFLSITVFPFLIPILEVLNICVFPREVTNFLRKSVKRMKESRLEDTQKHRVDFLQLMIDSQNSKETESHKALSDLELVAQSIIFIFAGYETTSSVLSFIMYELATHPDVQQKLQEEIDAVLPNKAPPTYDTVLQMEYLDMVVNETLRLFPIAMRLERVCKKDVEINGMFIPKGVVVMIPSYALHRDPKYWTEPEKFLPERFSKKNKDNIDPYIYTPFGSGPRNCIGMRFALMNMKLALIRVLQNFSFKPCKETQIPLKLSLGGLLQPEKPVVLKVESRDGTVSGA

Take `NNC(=O)c1ccncc1` [INH, isoniazid]: in the series on M. abscessus, the MIC is > 12 µM. For the same compound, the “killing of persister cultures” value in [1] was “minimal killing”. Also, the MIC in the series with M. fortuitum was > 12 µM. This compound also displayed an MIC against M. tuberculosis TDR692 of 0.2 µM (≈ 0.0274 µg/mL). The MIC against M. avium is > 12 µM. Moreover, the MIC against M. smegmatis is > 12 µM. The MIC against M. marinum was > 12 µM. Besides, in [2], the “Fold change, Rv0885” value was 2.044 fold; the “Fold change, Rv2706c” value turned out to be 2.3 fold; the “Fold change, Rv3269” value is listed as -2.076 fold; the “Fold change, Rv3352c” value came out at 2.131 fold. In series [2], the “Fold change, ctpD” value was found to be 2.334 fold; the “Fold change, cysA3” value is listed as -2.027 fold; the “Fold change, fadD5” value is reported as -2.2153 fold; the “Fold change, fadD11” value is on record as -2.252 fold. In addition, in [2], the “Fold change, lprQ” value was determined as 2.051 fold; the “Fold change, sapM” value is reported as 2.01 fold; the “expression of the kasA, kasB, and acpM genes and the iniBAC operon” value was “strongly induced expression”. Besides, the MIC in the series with M. tuberculosis 210 is 0.4 µM (≈ 0.0549 µg/mL). This compound registered an MIC against M. bovis BCG of 0.4 µM (≈ 0.0549 µg/mL).

Take “1-Methyl-N-pentyl-1H-indazol-6-amine [5f]”: the “Kinetic solubility in pH 7.4 PBS” value is reported as >500 µM. Moreover, the MIC in the series on M. tuberculosis H37Rv is >100 µM. This compound yielded an MLM stability clint in [3] (Table 3) of 56.7 μl/mi/mg protein. Also, the “MLM stability t1/2” value in series [3] (with NADPH) turned out to be 12.2 min. Moreover, the “MLM stability t1/2 without NADPH” value in series [3] (without NADPH) is > 3,060 min.

Take `CC12C[C@@]34C=CC(=O)[C@@](C)(CCC(=O)Nc5c(O)ccc(C(=O)O)c5O)C3[C@H](CC1C4)O2` (some centres unmarked) [platensimycin]: in the series with M. tuberculosis, the “whole-cell activity in M. tuberculosis” value is reported as 27 µM.

`CCCCS(=O)(=O)Nc1ccc2cnn(C)c2c1` [DG167, N-(1-Methyl-1H-indazol-6-yl)butane-1-sulfonamide]: the half-inhibitory concentration (IC50) was > 50 µM against CYP2D6; > 50 µM against CYP2C9; > 50 µM on CYP1A2; > 50 µM against CYP3A4; > 20 µM at hERG; 12 µM and 12.4 µM on CYP2C19. Also, the MIC with M. abscessus, with M. fortuitum, in the series on M. avium, with M. smegmatis and in the series with M. marinum was > 50 µM in each case. For the same compound, the half-life in “in vitro [4]” was 10.1 min; in “in vitro [4]” (setting [15]), > 300 min; in series [11] (pH 2) it was 192 h; in series [11] (pH 9) it was 57.8 h; in “in vivo” (mouse, in vivo, iv, 5 mg/kg) it was 19.8 min. In “in vitro [4]”, this compound came in with a microsomal CLint of 68.9 µL/min/mg. Besides, in series [5], the “inhibition of mycolic acid biosynthesis” value is “dose-dependent inhibition”. Also, the “induction of iniBAC promoter” value in [6] is “approximately 12 fold”. Moreover, the “tolerability, dose escalation” value in series [7] (mice, 50 and 100 mg/kg, monitored for 8 h) is “well tolerated”; in series [7] (mouse, in vivo), “heavy breathing, hunched posture, and decreased activity”. In addition, the “dose tolerability for 5 days” value in [7] (mice, 5 days, DG167 50 and 100 mg/kg, combination DG167 100 mg/kg with INH 25 mg/kg) is reported as “did not show any behavioral changes or weight loss”. The “Human plasma stability at 5 h” value in series [8] is 109%. Further, the “Mouse plasma stability @ 5 h” value in [8] came out at 99.1%. Besides, the “killing of persister cultures” value in series [1] was “minimal killing”. The Papp in “in vitro [9]” (Caco-2, Caco-2 Permeability PA-B) is 71.8 ×10⁻⁶ cm/s; in “in vitro [9]” (Caco-2, Caco-2 Permeability PB-A), 45.6 ×10⁻⁶ cm/s. For the same compound, the CC50 in “in vitro [10]” was found to be 23 µM; in the series “in vitro [12]”, 94 µM. Besides, the “Chemical stability t1/2” value in [11] (pH 7) was “Stable”. In addition, the kinetic solubility in “physchem” was found to be 324 µM (≈ 86.6 µg/mL). Besides, the values for the recovery in the series “in vitro [13]” (human) and in “in vitro [13]” (mouse) were 92% and 90.7%, respectively. Further, the fraction unbound in “in vitro [13]” (human) was 0.081; in the series “in vitro [13]” (mouse) it was 0.21. The MLM stability clint in series [14] was 68.9 μl/mi/mg protein. The MLM-generated metabolites entry in series [14] is given as “A demethylated species, corresponding to loss of the 1-methyl group (Fig. S5A), predominated among the metabolites”. Besides, the AUC(0-t) in “in vivo” (mouse, in vivo, iv, 5 mg/kg) was found to be 1750 ng·h/mL; in the series “in vivo” (mouse, in vivo, po, 25 mg/kg), 8080 ng·h/mL. This compound displayed a bioavailability in “in vivo” (plasma, po, 25 mg/kg) of 92.3%. Besides, the “expression of the kasA, kasB, and acpM genes and the iniBAC operon” value in series [2] is on record as “strongly induced expression”. Besides, the EC50 at KasA amounted to 0.131 ± 0.0182 µM.

Turning to `CCCCS(=O)(=O)Nc1ccc2cn[nH]c2c1` [5a-2, N-(1H-Indazol-6-yl)butane-1-sulfonamide], in [5], the “inhibition of mycolic acid biosynthesis” value is given as “did not show any inhibition”. The kinetic solubility in the series “physchem” is > 600 µM. Further, the MLM stability clint in series [14] was 68.7 μl/mi/mg protein. Also, the MIC in the series on M. tuberculosis H37Rv was >100 µM; against M. tuberculosis H37Rv (Mycobacterium tuberculosis, H37RV), > 100 µM. The half-life in series [3] (MLM stability t1/2, with NADPH) is 12.2 min; in [3] (setting [15]) it was > 3060 min. The compound further displayed an EC50 on KasA of 1.74 µM.

As for `C=C/C(C)=C/[C@@]1(C)SC(=O)C(C)=C1O` [thiolactomycin], the “whole-cell activity in M. tuberculosis” value with M. tuberculosis is listed as 142 µM.
